According to the supplement of paper PMC10307832:

What was measured:
Assay in all cases: relative viability (nuclei count vs DMSO), 5 days (fraction); higher = more cells survive
[1] = compound: O[C@@H](COc1cccc2ncccc12)CN1CCN([C@@H]2c3ccccc3[C@@H]3[C@H](c4ccccc42)C3(F)F)CC1 [Zosuquidar] + Nc1ncn([C@H]2C[C@H](O)[C@@H](CO)O2)c(=O)n1 [Decitabine] (partner 2 µM)
In short: (§1)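 Values are medians from duplicate plates. Each reflects relative viability, defined as the nuclei count of treated wells over that of vehicle wells. Lung cancer cell lines in 1536-well plates were pin-tool dosed one day after seeding with one drug alone or with a fixed anchor-drug dose plus five library-drug doses (not always all listed) in √10 steps, then fixed, stained and imaged at 4× after 5 days.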

[2] = compound: COc1cc2nccc(Oc3ccc(NC(=O)C4(C(=O)Nc5ccc(F)cc5)CC4)cc3)c2cc1OC [Cabozantinib] + O=C(c1cc(Cc2n[nH]c(=O)c3ccccc23)ccc1F)N1CCN(C(=O)C2CC2)CC1 [Olaparib] (partner 8 µM)
In short: as §1

[3] = compound: O[C@@H](COc1cccc2ncccc12)CN1CCN([C@@H]2c3ccccc3[C@@H]3[C@H](c4ccccc42)C3(F)F)CC1 [Zosuquidar] + CS(=O)(=O)CCNCc1ccc(-c2ccc3ncnc(Nc4ccc(OCc5cccc(F)c5)c(Cl)c4)c3c2)o1 [Lapatinib] (partner 2 µM)
In short: as §1

[4] = compound: COc1cc2nccc(Oc3ccc(NC(=O)C4(C(=O)Nc5ccc(F)cc5)CC4)cc3)c2cc1OC [Cabozantinib] + CCNC(=O)c1noc(-c2cc(C(C)C)c(O)cc2O)c1-c1ccc(CN2CCOCC2)cc1 [Luminespib] (partner 0.01 µM)
In short: as §1

Row | Cell Line | relative viability ([1]; first compound 0.01 µM) | relative viability ([1]; first compound 0.03162 µM) | relative viability ([1]; first compound 0.1 µM) | relative viability ([1]; first compound 0.3162 µM) | relative viability ([1]; first compound 1 µM) | relative viability ([2]; first compound 0.02 µM) | relative viability ([2]; first compound 0.06325 µM) | relative viability ([2]; first compound 0.2 µM) | relative viability ([2]; first compound 0.6325 µM) | relative viability ([2]; first compound 2 µM) | relative viability ([3]; first compound 0.01 µM) | relative viability ([3]; first compound 0.03162 µM) | relative viability ([3]; first compound 0.1 µM) | relative viability ([3]; first compound 0.3162 µM) | relative viability ([3]; first compound 1 µM) | relative viability ([4]; first compound 0.02 µM) | relative viability ([4]; first compound 0.06325 µM) | relative viability ([4]; first compound 0.2 µM) | relative viability ([4]; first compound 0.6325 µM) | relative viability ([4]; first compound 2 µM)
1 | 201T | 0.848 | 0.858 | 0.837 | 0.867 | 0.864 | 0.909 | 0.893 | 0.832 | 0.842 | 0.832 | 0.996 | 1.05 | 0.881 | 1.02 | 0.997 | 1.12 | 1.08 | 1.04 | 1.06 | 1.03
2 | A549 | 0.264 | 0.116 | – | 0.318 | 0.301 | 0.291 | 0.628 | 0.34 | 0.212 | 0.309 | 0.958 | 0.935 | 0.984 | 0.977 | 0.94 | – | – | – | – | –
3 | A-427 | 0.582 | 0.561 | 0.584 | 0.653 | 0.557 | 0.715 | 0.709 | 0.714 | 0.761 | 0.704 | 1.07 | 1.02 | 0.842 | 1.07 | 1.01 | 1.23 | 1.15 | 1.03 | 0.912 | 0.857
4 | ABC-1 | 1.27 | 1.15 | 1.15 | 1.24 | 1.15 | – | 0.786 | 0.939 | 0.598 | 0.816 | 1.17 | 1.14 | 1.24 | 1.19 | 1.05 | 0.458 | 0.494 | 0.83 | 1.11 | 0.758
5 | BEN | 0.695 | 0.664 | 0.659 | 0.822 | 0.787 | 1.16 | 1.18 | 1.23 | 1.01 | 0.764 | 0.79 | 0.718 | 0.594 | 0.825 | 0.745 | 0.3 | 0.414 | 0.326 | 0.352 | 0.257
6 | CAL-12T | – | – | – | – | – | 0.728 | 0.859 | 0.73 | 0.716 | 0.743 | 0.716 | 0.84 | – | 0.768 | 0.819 | 0.832 | 0.574 | 0.37 | 0.581 | 1.37
7 | COR-L23 | 0.501 | 0.421 | 0.511 | 0.469 | 0.468 | 0.366 | 0.399 | 0.39 | 0.37 | 0.351 | 0.953 | 0.934 | 0.968 | 1.15 | 1.34 | 0.733 | 0.823 | 0.723 | 0.675 | 0.658
8 | COR-L 105 | 0.645 | 0.712 | 0.636 | 0.716 | 0.652 | 0.75 | 0.688 | 0.742 | 0.663 | 0.805 | 0.35 | 0.389 | 0.324 | 0.366 | 0.386 | 0.924 | 0.823 | – | 0.915 | 0.609
9 | Calu-6 | – | – | – | – | – | 0.595 | 0.662 | 0.613 | 0.539 | 0.517 | 1.04 | 1.09 | 1.2 | 1.06 | 1.06 | – | – | – | – | –
10 | ChaGo-K-1 | 0.552 | 0.448 | 0.534 | 0.536 | 0.477 | 0.446 | 0.458 | 0.454 | 0.411 | 0.442 | – | – | – | – | – | 0.638 | 0.757 | 0.737 | 0.765 | 0.447
11 | EBC-1 | – | – | – | – | – | 0.748 | 0.452 | 0.16 | 0.136 | 0.123 | 0.215 | 0.234 | 0.206 | 0.198 | 0.226 | – | – | – | – | –
12 | EKVX | 0.299 | 0.414 | – | 0.334 | 0.36 | 1.04 | 1.01 | 0.792 | 0.969 | 0.805 | 0.227 | 0.254 | 0.106 | 0.34 | 0.214 | 0.859 | 1.02 | 0.918 | 0.751 | 0.893
13 | EMC-BAC-2 | 0.915 | 0.991 | 0.9 | 1.14 | 0.964 | 0.496 | 0.499 | 0.531 | 0.472 | 0.485 | 0.852 | 0.925 | 0.816 | 0.986 | 0.954 | 1.23 | 1.15 | 1.24 | 1.1 | 1.09
14 | EPLC-272H | 0.393 | 0.429 | 0.4 | 0.392 | 0.376 | 0.906 | 0.787 | 0.648 | 0.884 | 0.597 | 0.916 | 0.97 | 0.876 | 1.01 | 1 | 0.418 | 0.282 | 0.14 | 0.476 | 0.256
15 | H3255 | 0.559 | 0.592 | 0.497 | 0.696 | 0.716 | 0.583 | 0.613 | – | 0.599 | 0.611 | 0.264 | 0.295 | 0.235 | 0.234 | 0.256 | 0.885 | 1.13 | – | 0.905 | 0.893
16 | HARA | 0.474 | 0.542 | 0.607 | 0.492 | 0.629 | 0.794 | 1.07 | – | 0.978 | 0.635 | 0.806 | 0.69 | 0.676 | 0.932 | 0.879 | 0.722 | 0.421 | 0.615 | 0.92 | 0.548
17 | HCC-15 | 0.64 | 0.575 | 0.599 | 0.711 | 0.635 | 0.745 | 0.755 | 0.73 | 0.719 | 0.692 | 0.827 | 0.861 | 0.764 | 0.881 | 0.976 | 0.374 | 0.361 | 0.515 | 0.394 | 0.214
18 | HCC-44 | 0.981 | 0.961 | 1 | 0.934 | 0.919 | 0.988 | 1.02 | 0.964 | 0.997 | 1 | 0.948 | 1.08 | 1.05 | 0.967 | 1.06 | – | 1.15 | 1.08 | 1 | 1.02
